Legend:
S. epidermidis = S. epidermidis culture and proliferation assay; format: cell-based, Staphylococcus epidermidis
Experimental: S. epidermidis 4814 (CECT, Valencia, Spain) were grown from frozen stocks in Luria-Bertani (LB) broth (Scharlab, Sentmenat), at 37° C. under aerobic conditions in an orbital shaker (180 rpm). After an overnight incubation, 1 mL of bacterial suspensions were incubated with different concentrations of HCX (0.003, 0.002, 0.001, 0.0002, 0.00002%) for 24 hours at 37° C. under aerobic conditions in an orbital shaker (180 rpm). Bacterial suspension without treatment served as negative control, and CHX at 0.001% served as positive control for bacterial growth inhibition. The optical density (OD) was measured at 600 nm at 0 h, 10 h and 24 h to determine bacterial proliferation (PowerWave Ht, Biotek instruments, Winooski, VT, USA). Bacterial growth rate (μ) was calculated during the exponential growth phase following the equation ln ODt−ln OD0=μ×(t−t0). Live/Dead ratio of bacteria was determined using the LIVE/DEAD BacLight bacterial viability kit (Invitrogen, Thermo Fisher Scientific, Waltham, MA, USA), following manufacturer's instructions. The assays were carried out in triplicate, with two replicates at each condition (n=6). […]

S. mutans = S. mutans culture and proliferation assay; format: cell-based, Streptococcus mutans; conditions: 5 h
Experimental: (§1) S. mutans CECT 479 (obtained from The Spanish Type Culture Collection (CECT), University of Valencia) was grown from frozen stocks in BHI broth (Scharlab), at 37° C. under aerobic conditions in an orbital shaker (180 rpm). After overnight incubation, 1 mL of bacterial suspensions were incubated with different concentrations of CHX (0.01, 0.005, 0.003, 0.001, 0.0001%) and HCX (0.003, 0.002, 0.001, 0.0002, 0.00002%) for 5 hours at 37° C. under aerobic conditions in an orbital shaker (180 rpm). Bacterial suspension without treatment served as negative control (C−). The optical density (OD) was measured at 600 nm at 0 h and 5 h to determine bacterial proliferation (PowerWave Ht). The bacterial growth rate (μ) was calculated during the exponential growth phase following the equation ln ODt−ln OD0=μ×(t−t0) (n=3). The live/Dead ratio of bacteria was determined using the LIVE/DEAD BacLight bacterial viability kit (Invitrogen), following the manufacturer's instructions. The assays were carried out in triplicate, with two replicates at each condition (n=3).
The bacteria S. mutans was cultured and treated with different commercial periodontal gels and HA formulated with 0.1%, 0.05%, and 0.01% HCX and aMG for 24 h. The gels were tested at a concentration of 5% (v/v), and the experiment was run like in experiment 8 of section 8.1.

P. aeruginosa = P. aeruginosa culture and proliferation assay; format: cell-based, Pseudomonas aeruginosa; conditions: 0.003% HCX, 3 h
Experimental: P. aeruginosa ATCC 27853 was grown from frozen stocks in LB broth (Scharlab), at 37° C. under aerobic conditions in an orbital shaker (180 rpm). After overnight incubation, 1 mL of bacterial suspensions were incubated with different concentrations of CHX (0.01, 0.005, 0.003, 0.001, 0.0001%) and HCX (0.003, 0.002, 0.001, 0.0002, 0.00002%) for 3 hours at 37° C. under aerobic conditions in an orbital shaker (180 rpm). Bacterial suspension without treatment served as negative control (C−). The optical density (OD) was measured at 600 nm at 0 h and 3 h to determine bacterial proliferation (PowerWave Ht). The bacterial growth rate (μ) was calculated during the exponential growth phase following the equation ln ODt−ln OD0=μ×(t−t0) (n=3).

C. albicans = assay: Candida albicans culture and proliferation assay; format: cell-based; conditions: 0.003% HCX, 24 h
Experimental: C. albicans was grown from frozen stocks in LB broth (Scharlab), at 37° C. under aerobic conditions in an orbital shaker (180 rpm). […] Fungal suspension without treatment served as negative control (C−). […] The fungal growth rate (μ) was calculated during the exponential growth phase following the equation ln ODt−ln OD0=μ×(t−t0) (n=3).

S. pyogenes = S. pyogenes culture and proliferation assay; format: cell-based, Streptococcus pyogenes; conditions: 0.0002% HCX, 24 h
Experimental: as §1, with “S. pyogenes” for “S. mutans CECT 479 (obtained from The Spanish Type Culture Collection (CECT), University of Valencia)”, “in Tryptic Soy Broth (TSB)” for “in BHI broth”, “for 24” for “for 5”, “and 24” for “and 5”, “OD0=μ×(t−t0) (n=4).” for “OD0=μ×(t−t0) (n=3).”, “in triplicate.” for “in triplicate, with two replicates at each condition (n=3).”

## COc1c(O)cc2oc3cc4c(c(O)c3c(=O)c2c1CC=C(C)C)C=CC(C)(C)O4 [HCX, 9-hydroxycalabaxanthone]
S. epidermidis; 0.001% HCX, 10 h
  bacteria eliminated: 100%
S. epidermidis; 0.003% HCX, 24 h
  bacteria eliminated: 80%
S. mutans; 0.0002% HCX
  bacteria eliminated: 70%
S. mutans; 0.001% HCX
  bacteria eliminated: 90%
P. aeruginosa
  bacteria eliminated: 32%
C. albicans
  fungal eliminated: 22%
S. pyogenes
  bacteria eliminated: 100%

Reference: US20250303006A1, “BIOCOMPATIBLE ANTISEPTIC COMPOSITION CONTAINING 9-HYDROXYCALABAXANTHONE AND/OR RELATED XANTHONES” (UNIVERSITAT DE LES ILLES BALEARS, priority 2022, published 2025)
